{"source": "patent US20150351401A1", "about": "(priority 2012, published 2015)", "key": {"Puccinia recondita": {"tested_on": "Puccinia recondita", "test": "CG1 Preventative control of brown rust on wheat caused by Puccinia recondita (Puccrt P1), greenhouse", "type": "in vivo", "details": "75 ppm spray, wheat seedlings, inoculated next day; % diseased leaf area; untreated control 90", "method": "The Spray Solutions were Prepared in Several Steps:\nThe stock solution were prepared: a mixture of acetone and/or dimethylsulfoxide and the wetting agent/emulsifier Wettol, which is based on ethoxylated alkylphenoles, in a relation (volume) solvent-emulsifier of 99 to 1 was added to the initial weight of the compound to give a total of 5 ml. Water was then added to total volume of 100 ml. This stock solution was diluted with the described solvent-emulsifier-water mixture to the given concentration.\nCG1 Preventative Control of Brown Rust on Wheat Caused by Puccinia recondita (Puccrt P1)\nThe first two developed leaves of pot-grown wheat seedling were sprayed to run-off with an aqueous suspension, containing the concentration of active ingredient or their mixture as described below. The next day the plants were inoculated with spores of Puccinia recondita. To ensure the success the artificial inoculation, the plants were transferred to a humid chamber without light and a relative humidity of 95 to 99% and 20 to 24° C. for 24 h. Then the trial plants were cultivated for 6 days in a greenhouse chamber at 20-24° C. and a relative humidity between 65 and 70%. The extent of fungal attack on the leaves was visually assessed as % diseased leaf area."}, "Pyricularia oryzae": {"tested_on": "Pyricularia oryzae", "type": "cell-based"}, "[1]": {"details": "comparison CM1, 7 days after inoculation"}, "[2]": {"details": "comparison CM2, 7 days after inoculation"}}, "note": "Like-named read-outs stand apart in the source and are kept apart here."}
{"smiles": "OC(Cc1ccc(-c2ccc(Cl)cc2)cc1Cl)(Cn1cncn1)C1(Cl)CC1", "note": "(stereo not drawn) [I-3, 1-[2-chloro-4-(4-chlorophenyl)phenyl]-2-(1-chlorocyclopropyl)-3-(1,2,4-triazol-1-yl)propan-2-ol]", "values": [{"measurement": "Disease (%) at 75 ppm Puccrt P1", "setting": "Puccinia recondita", "value": 20, "unit": "%"}]}
{"smiles": "OC(Cc1ccc(Oc2ccc(Cl)cc2)cc1Cl)(Cn1cncn1)C1(Cl)CC1", "note": "(stereo not drawn) [I-4]", "values": [{"measurement": "Disease (%) at 75 ppm Puccrt P1", "setting": "Puccinia recondita", "value": 20, "unit": "%"}]}
{"smiles": "OC(Cc1ccc(Oc2ccc(Cl)cc2)cc1Cl)(Cn1ncnc1S)C1(Cl)CC1", "note": "(stereo not drawn) [I-5]", "values": [{"measurement": "Growth (%) at 8 ppm Pyrior", "setting": "Pyricularia oryzae; [1]", "value": 0, "unit": "%"}, {"measurement": "Growth (%) at 8 ppm Pyrior", "setting": "Pyricularia oryzae; [2]", "value": 0, "unit": "%"}]}
{"smiles": "OC(Cc1ccc(-c2ccc(Cl)cc2)cc1Cl)(Cn1ncnc1S)C1(Cl)CC1", "note": "(stereo not drawn) [I-6]", "values": [{"measurement": "Growth (%) at 8 ppm Pyrior", "setting": "Pyricularia oryzae; [1]", "value": 0, "unit": "%"}]}
{"smiles": "OC(Cc1ccc(Oc2ccc(Cl)cc2)cc1Cl)(Cn1cncn1)C1CC1", "note": "(stereo not drawn) [I-7, 1-[2-Chloro-4-(4-chlorophenoxyl)phenyl]-2-cyclopropyl-3-(1,2,4-triazol-1-yl)propan-2-ol]", "values": [{"measurement": "Growth (%) at 8 ppm Pyrior", "setting": "Pyricularia oryzae; [2]", "value": 0, "unit": "%"}]}
{"smiles": "OC(Cc1ccccc1Cl)(Cn1ncnc1S)C1(Cl)CC1", "note": "(stereo not drawn) [drawing 129, reference compound]", "values": [{"measurement": "Growth (%) at 8 ppm Pyrior", "setting": "Pyricularia oryzae; [1]", "value": 41, "unit": "%"}]}
{"smiles": "OC(Cc1ccccc1Cl)(Cn1ncnc1S)C1(Cl)CC1", "note": "(stereo not drawn) [drawing 135, reference compound]", "values": [{"measurement": "Growth (%) at 8 ppm Pyrior", "setting": "Pyricularia oryzae; [2]", "value": 41, "unit": "%"}]}
{"smiles": "OC(Cc1ccccc1Cl)(Cn1cncn1)C1(Cl)CC1", "note": "(stereo not drawn) [reference compound]", "values": [{"measurement": "Disease (%) at 75 ppm Puccrt P1", "setting": "Puccinia recondita", "value": 50, "unit": "%"}]}
